The results in this text go back to patent US20090172831A1, “Methods for the production of plants resistant to HPPD herbicides” (Syngenta Limited, priority 2000, published 2009).

The target of the experiment is P. fluorescens HPPD (Pseudomonas fluorescens, UniProt A0ACG8AE61). Briefly: Dissociation of enzyme/inhibitor complexes by exchange with 14C-labelled inhibitor (koff; Kd = koff/kon). The format is binding. The source says: Herbicidal inhibitors of HPPD are found here to have generally low values of koff (in the range less than 0.0003 s^−1, often less than 0.000001 s^−1). It will be appreciated that many suitable methods known in the art for determining such low koff values are suitable for working the current invention. These include measuring rates of exchange of radio or otherwise labelled inhibitors either with or away from the enzyme inhibitor complex. For example enzyme inhibitor complexes can readily be prepared by incubating HPPD preparations with labelled or unlabelled inhibitor and then, after suitable periods, optionally rapidly separating the thus formed enzyme inhibitor complex from excess inhibitor by any suitable method such as ultrafiltration, binding to filters or exchange down a gel filtration column. Exchange reactions with the, thus prepared enzyme inhibitor complex is then initiated by addition of, as appropriate, excess labelled or unlabelled inhibitor. HPPD preparations suitable for use in the methods of the current invention are relatively unpurified, buffer-exchanged, supernatant fractions of spun crude lysates of E. coli strains engineered to express the HPPD enzyme of interest at a level of, typically, about 0.25-10% of the total soluble protein. Many methods such as radiometric, fluorimetric, NMR, fluorescence depolarisation, EPR, Mossbauer, UV/VIS spectrophotometry etc. or phonon resonance can, in principle, be used to monitor the enzyme/ligand exchange reactions and, particularly in this case where the enzyme contains an iron atom at the ligand binding site. Optionally, the monitoring method may be continuous (as, for example, with scintillation proximity/bead-based methods) or, discontinuous, based upon collection of data at various timepoints wherein samples are removed and the bound and unbound label components rapidly separated and quantitated.
Values of koff can suitably be calculated by computer fitting based upon is numerical integration of the exchange data along with information on the active-site concentration of HPPD and upon kon values obtained as described below. […] In any event, koff values are always here calculated from the rate of the major slow exchange reaction. It will be appreciated that within the scope of the current invention many methods of making the desired kinetic comparisons are possible without explicit or rigorous determination of off rates but, based upon the same underlying principle, will achieve the same selection result. […]
Not all test inhibitors are readily available in a radiolabelled form. A more general method of measuring off rates is to first form the complex with unlabelled test inhibitor, to rapidly exchange the complex free of excess unlabelled inhibitor and to then start the exchange reaction by addition of an excess of a standard labelled inhibitor, the kinetic properties of which are already known. The reaction is then monitored and the relative proportions of bound and unbound label determined at various times. […] The latter is the method of choice when the rate of exchange is fast (t½<3 h).
In, variants of the above methods, off rates are measured either in the presence or absence of ˜25% v/v glycerol. In the presence of glycerol values obtained are generally ˜1.5-3× slower than in its absence although sometimes the change is outside this range or, even, in the other direction. Further examples of data obtained are depicted in the following Table 3.
Crude Extracts of recombinant E. coli strains expressing, in the one case, a control HPPD (from Arabidopsis) and, in the other, one or more test HPPD sequences are prepared as described in the preceding example. The titre of active sites and enzyme activity are also defined and measured as described in the preceding examples. […]

Each structure is given as a SMILES string. Where two headings read alike, the source gives them in different places.

Chain of P. fluorescens HPPD (A0ACG8AE61 entry or part of it): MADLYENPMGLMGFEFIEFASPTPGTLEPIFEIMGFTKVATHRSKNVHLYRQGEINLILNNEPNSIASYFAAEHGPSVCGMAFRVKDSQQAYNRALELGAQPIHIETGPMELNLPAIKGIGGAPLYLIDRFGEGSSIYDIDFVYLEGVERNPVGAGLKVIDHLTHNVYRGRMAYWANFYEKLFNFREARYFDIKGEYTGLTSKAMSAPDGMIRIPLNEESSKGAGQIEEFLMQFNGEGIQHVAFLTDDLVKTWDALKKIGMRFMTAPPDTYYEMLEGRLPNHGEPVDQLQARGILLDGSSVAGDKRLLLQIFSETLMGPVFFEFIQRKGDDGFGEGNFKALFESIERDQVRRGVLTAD

The Kd is a measure of binding affinity in units of concentration. For the molecule `CS(=O)(=O)c1ccc(C(=O)C2C(=O)CCCC2=O)c([N+](=O)[O-])c1` [Structure I, 2-(Nitro-4-methanesulphonylbenzoyl)-cyclohexane-1,3-dione, reference compound], the Kd was 0.2 nM (Kd, value obtained + glycerol (in parentheses)) and 0.114 nM (Kd, without glycerol, Kd = koff/kon).

For orientation: koff means the first-order rate constant of dissociation. As to `Cc1nc(C(F)(F)F)ccc1C(=O)C1C(=O)C2CCC(C2)C1=O` (stereo not shown) [Structure II], the Kd (without glycerol, Kd = koff/kon, read-out: Kd) was 2.17 nM. Besides, the off-rate constant (koff) (− glycerol) came out at 5e-05 s⁻¹.
